Columns and labels:
Glutamate NMDA receptor = test: Binding affinity to the glutamate site of the NMDA receptor was measured by competitive inhibition of binding of [3H]-CGP- 39653 to rat or porcine cerebral cortex membranes; format: cell membranes, Membrane
Mus musculus [1] = test: Analgesic activity was evaluated in the mouse formalin test (20 umol/kg 1 % formaldehyde injected into a hind paw, licking of the paw scored 15-30 min after formalin injection); format: functional
Mus musculus [2] = test: Analgesic activity was evaluated in the mouse formalin test (20 uM/Kg 1% formaldehyde injected into a hind paw, licking of the paw scored 15-30 min after formalin injection); format: functional
Mus musculus [3] = test: Tested for its analgesic activity in the mouse formalin test (20 umol/kg 1 % formaldehyde injected into a hind paw, licking of the paw scored 15-30 min after formalin injection); format: functional

Row | Ki (Glutamate NMDA receptor) [µM] | Compound | other results
1 | 2.7 | NC(Cc1oc2ccccc2c1CP(=O)(O)O)C(=O)O (stereo unspecified) | 
2 | 0.0182 | N[C@H](Cc1nc2cc(Cl)c(Cl)cc2n1CP(=O)(O)O)C(=O)O | 
3 | 0.004 | Cc1cc2cc(CP(=O)(O)O)c(C[C@@H](N)C(=O)O)nc2cc1Cl | 
4 | 0.029 | N[C@H](Cc1nc2c(Cl)cc(Cl)cc2cc1CP(=O)(O)O)C(=O)O | 
5 | 0.029 | O=C(O)[C@@H]1C[C@H](CP(=O)(O)O)CCN1 (relative stereo) [SELFOTEL] | 
6 | 0.95 | COc1cc2cc(CP(=O)(O)O)c(C[C@@H](N)C(=O)O)nc2cc1OC | 
7 | 0.722 | N[C@H](Cc1nc2ccncc2cc1CP(=O)(O)O)C(=O)O | 
8 | 0.074 | N[C@H](Cc1nc2ncccc2cc1CP(=O)(O)O)C(=O)O | 
9 | 0.004 | CCc1cc2cc(CP(=O)(O)O)c(C[C@@H](N)C(=O)O)nc2cc1CC | 
10 | 0.43 | Cc1cc2cc(CP(=O)(O)O)c(C[C@H](N)C(=O)O)nc2cc1C | 
11 | 0.12 | N[C@H](Cc1nc2cccc(Cl)c2cc1CP(=O)(O)O)C(=O)O | 
12 | 0.013 | CCC/C(=C\C(N)C(=O)O)CP(=O)(O)O (stereo unspecified) | 
13 | 0.005 | N[C@H](Cc1nc2cc(Cl)c(Cl)cc2cc1CP(=O)(O)O)C(=O)O | 
14 | 0.0034 | NC(Cc1nc2cc(Cl)c(Cl)cc2nc1CP(=O)(O)O)C(=O)O (stereo unspecified) | 
15 | 0.054 | Cc1ccc2cc(CP(=O)(O)O)c(C[C@@H](N)C(=O)O)nc2c1 | 
16 | 0.123 | N[C@H](Cc1nc2ccccc2cc1CP(=O)(O)O)C(=O)O | 
17 | 0.14 | N[C@H](Cc1nc2ccc(F)cc2cc1CP(=O)(O)O)C(=O)O | 
18 | 0.14 | NC(Cc1cc2ccccc2cc1CP(=O)(O)O)C(=O)O (stereo unspecified) | 

Row | Compound | Ki (Glutamate NMDA receptor) [µM] | other results
19 | N[C@H](Cc1nc2cc(Cl)ccc2cc1CP(=O)(O)O)C(=O)O | 0.02 | ED50 (Mus musculus [1]): 60 µmol/kg
20 | Cc1cc2cc(CP(=O)(O)O)c(C[C@@H](N)C(=O)O)nc2cc1C | 0.005 | ED50 (Mus musculus [1]): 42 µmol/kg
21 | N[C@H](Cc1nc2ccc(Cl)cc2cc1CP(=O)(O)O)C(=O)O | 0.057 | ED50 (Mus musculus [2]): 200 µmol/kg
22 | CCOc1ccc2cc(CP(=O)(O)O)c(C[C@@H](N)C(=O)O)nc2c1 | 0.029 | ED50 (Mus musculus [3]): 150 µmol/kg
